Patent US20050215582A1, “Substituted pyrrolopyridines” (priority 2002, published 2005)
Structures can show the parent of a compound that is named as a salt.

Target: T1, recombinant human Itk kinase domain fused with GST (Homo sapiens, UniProt Q08881)
T1 construct: recombinant human Itk kinase domain fused with GST; GST (Glutathione S-Transferase); made in house; host or cells: High five insect cells
T1 sequence (Q08881 363-615 limits assumed): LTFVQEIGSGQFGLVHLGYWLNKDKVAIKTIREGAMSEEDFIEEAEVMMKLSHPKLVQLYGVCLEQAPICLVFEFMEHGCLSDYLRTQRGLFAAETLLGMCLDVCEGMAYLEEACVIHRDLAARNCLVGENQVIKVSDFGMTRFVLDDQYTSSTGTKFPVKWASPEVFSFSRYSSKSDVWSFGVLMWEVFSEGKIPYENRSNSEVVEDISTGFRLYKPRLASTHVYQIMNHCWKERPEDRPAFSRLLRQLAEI
Experiment: Itk LANCE TRF Assay
Type: biochemical
Conditions: 50 μM ATP, 2 μM biotinylated peptide substrate, 50 minutes RT; read-out: Inhibition of Kinase Itk (IC50 μM)
Method: The Itk kinase assay utilized recombinant human Itk kinase domain fused with GST (Glutathione S-Transferase). The protein was expressed in High five insect cells, purified in one step on an affinity chromatography glutathione column and stored in 50 mM Tris/HCl (pH 7.6), 150 mM NaCl, 5% (w/v) mannitol, 1 mM DTT, 30% glycerol at −70° C. The kinase substrate used in the assay was a biotinylated peptide derived from the Src-optimal substrate (Nair et at, J. Med. Chem., 38: 4276, 1995; biotin-AEEEIYGEFEAKKKK).
The assay additions were as follows: Test compounds (or controls; 1 μL in 100% DMSO) were added to black 96-well flat-bottomed plates (Greiner 655076) followed by 20 μL Itk in assay buffer and the reaction was started by adding 20 μL ATP and peptide substrate in assay buffer. The assay buffer constitution during phosphorylation was: 50 mM HEPES (pH 6.8), 10 mM MgCl2, 0.015% Brij 35, 1 mM DTT, 10% glycerol, 160 ng/well Itk, 2 μM peptide substrate and 50 μM ATP. The assay was stopped after 50 minutes (RT) by adding 150 μL ice-cold Stop solution (50 mM Tris/HCl, pH 7.5, 10 mM EDTA, 0.9% NaCl and 0.1% BSA) together with LANCE reagents (2 nM PT66-Eu^3+, Wallac AD0069 and 5 μg/ml Streptavidin-APC, Wallac AD0059. Both concentrations were final in stopped assay solution). The plates were measured on a Wallac 1420 Victor 2 instrument with TRF settings after 1 h incubation, and the ratio (665 signal/615 signal)*10000 was used to calculate the inhibition values. IC50 values were determined using XLfit.

Row | IC50 | Compound
1 | 0.26 µM | Cc1cnc2[nH]c(-c3ccco3)c(C3CCCN(C(N)=O)C3)c2c1 (stereo not drawn) [Example 5, 3-[2-(2-Furyl)-5-methyl-1H-pyrrolo[2,3-b]pyridin-3-yl]piperidine-1-carboxamide]
2 | 0.18 µM | CN(C)CCCOc1ccc(-c2[nH]c3ncc(Cl)cc3c2C2CCNCC2)cc1 [Example 8, {3-[4-(5-Chloro-3-piperidin-4-yl-1H-pyrrolo[2,3-b]pyridin-2-yl)phenoxy]propyl}dimethylamine]
3 | 0.09 µM | COc1ccc(-c2[nH]c3ncc(Br)cc3c2N2CCNCC2)cc1 [Example 21, 5-Bromo-2-(4-methoxy-phenyl)-3-piperazin-1-yl-1H-pyrrolo[2,3-b]pyridine trifluoroacetate]
